Source: patent US12257237B2 (priority 2017, dated 2025)

Tested on: DD013 dedifferentiated liposarcoma
Assay: Antitumour activity in DD013 dedifferentiated liposarcoma xenograft model
Format: in vivo, Athymic nude mice
Details: for optimal T/C: day 50
Procedure: Experiments were performed with female Athymic nude mice, 9-10 weeks old obtained from Harlan Laboratories (Udine, Italy). They were maintained under Specific Pathogen Free conditions with constant temperature and humidity, according to the institutional guidelines.
Tumour growth mice was monitored two/three times a week (depending on tumour growth rate, to avoid unnecessary stress to the animals) by Vernier caliper. Mice were sacrificed when tumour reached a mean weight of 2±0.5 gr. The antitumour activity will be expressed as T/C %, where T and C were the mean tumour weight of treated and control groups, respectively. Mice were monitored daily and weighted at least two times a week. Tolerability was evaluated on the basis of body weight loss (BWL) and clinical observation.
Statistical analysis was performed with GraphPad Prism version 6.01 software (GraphPad software, Inc., La Jolla, CA, USA). ANOVA test was performed to evaluate if there were statistically significant differences between treated and control groups.
Briefly, xenografts were obtained by transplanting 3-4 mm tumour fragments s.c. in the flanks of mice. The growing tumour masses were measured with the aid of a Vernier caliper, and the tumour weights (TW, 1 mm^3=1 mg) were calculated by the formula: length×(width) 2/2. When tumour load achieved about 200-400 mg, mice were randomized into the experimental groups.

## Cn1c(CCCCCCC(=O)NO)nc2cc(N(CCCl)CCCl)ccc21 [EDO-S101, 7-(5-(bis(2-chloroethyl)amino)-1-methyl-1H-benzo[d]imidazol-2-yl)-N-hydroxyheptanamide]
40 mg/kg i.v. q7dx3
  optimal T/C: 27.2%
40 mg/kg q7dx3, first cycle
  effect on tumour growth: reduced tumour growth, but without a complete arrest
40 mg/kg, second cycle from day 50
  effect of second cycle on tumour growth: promoted tumour growth arrest
60 mg/kg i.v. q7dx3
  optimal T/C: 14%
60 mg/kg, first cycle
  effect on tumour growth: induced tumour growth arrest
60 mg/kg, second cycle from day 72
  effect of second cycle on tumour growth: sustained tumour growth arrest
80 mg/kg i.v. single dose
  optimal T/C: 18%
80 mg/kg, first cycle
  effect on tumour growth: induced tumour growth arrest
80 mg/kg, second cycle from day 58
  effect of second cycle on tumour growth: Tumour growth arrest was also observed
EDO40: EDO-S101 40 mg/kg q7dx3, day 23 from inoculum
  DD0113 tumour weight, Mean: 198.6 mg
EDO40: EDO-S101 40 mg/kg q7dx3, day 26 from inoculum
  DD0113 tumour weight, Mean: 283.6 mg
EDO40: EDO-S101 40 mg/kg q7dx3, day 29 from inoculum
  DD0113 tumour weight, Mean: 319.2 mg
EDO40: EDO-S101 40 mg/kg q7dx3, day 33 from inoculum
  DD0113 tumour weight, Mean: 394.4 mg
EDO40: EDO-S101 40 mg/kg q7dx3, day 36 from inoculum
  DD0113 tumour weight, Mean: 380.3 mg
EDO40: EDO-S101 40 mg/kg q7dx3, day 40 from inoculum
  DD0113 tumour weight, Mean: 433.4 mg
EDO40: EDO-S101 40 mg/kg q7dx3, day 43 from inoculum
  DD0113 tumour weight, Mean: 451.3 mg
EDO40: EDO-S101 40 mg/kg q7dx3, day 47 from inoculum
  DD0113 tumour weight, Mean: 507.4 mg
EDO40: EDO-S101 40 mg/kg q7dx3, day 50 from inoculum
  DD0113 tumour weight, Mean: 570.5 mg
EDO40: EDO-S101 40 mg/kg q7dx3, day 54 from inoculum
  DD0113 tumour weight, Mean: 599.5 mg
EDO40: EDO-S101 40 mg/kg q7dx3, day 58 from inoculum
  DD0113 tumour weight, Mean: 584.1 mg
EDO40: EDO-S101 40 mg/kg q7dx3, day 62 from inoculum
  DD0113 tumour weight, Mean: 677.9 mg
EDO40: EDO-S101 40 mg/kg q7dx3, day 65 from inoculum
  DD0113 tumour weight, Mean: 677.8 mg
EDO40: EDO-S101 40 mg/kg q7dx3, day 69 from inoculum
  DD0113 tumour weight, Mean: 703.2 mg
EDO40: EDO-S101 40 mg/kg q7dx3, day 72 from inoculum
  DD0113 tumour weight, Mean: 669.8 mg
EDO40: EDO-S101 40 mg/kg q7dx3, day 75 from inoculum
  DD0113 tumour weight, Mean: 666.1 mg
EDO40: EDO-S101 40 mg/kg q7dx3, day 79 from inoculum
  DD0113 tumour weight, Mean: 756.8 mg
EDO40: EDO-S101 40 mg/kg q7dx3, day 83 from inoculum
  DD0113 tumour weight, Mean: 683.9 mg
EDO40: EDO-S101 40 mg/kg q7dx3, day 87 from inoculum
  DD0113 tumour weight, Mean: 935.9 mg
EDO40: EDO-S101 40 mg/kg q7dx3, day 90 from inoculum
  DD0113 tumour weight, Mean: 1022.8 mg
EDO40: EDO-S101 40 mg/kg q7dx3, day 94 from inoculum
  DD0113 tumour weight, Mean: 1226.5 mg
EDO40: EDO-S101 40 mg/kg q7dx3, day 98 from inoculum
  DD0113 tumour weight, Mean: 1338.0 mg
EDO40: EDO-S101 40 mg/kg q7dx3, day 100 from inoculum
  DD0113 tumour weight, Mean: 1553.1 mg
EDO60: EDO-S101 60 mg/kg q7dx3, day 23 from inoculum
  DD0113 tumour weight, Mean: 199.2 mg
EDO60: EDO-S101 60 mg/kg q7dx3, day 26 from inoculum
  DD0113 tumour weight, Mean: 272.5 mg
EDO60: EDO-S101 60 mg/kg q7dx3, day 29 from inoculum
  DD0113 tumour weight, Mean: 310.4 mg
EDO60: EDO-S101 60 mg/kg q7dx3, day 33 from inoculum
  DD0113 tumour weight, Mean: 373.1 mg
EDO60: EDO-S101 60 mg/kg q7dx3, day 36 from inoculum
  DD0113 tumour weight, Mean: 334.2 mg
EDO60: EDO-S101 60 mg/kg q7dx3, day 40 from inoculum
  DD0113 tumour weight, Mean: 371.2 mg
EDO60: EDO-S101 60 mg/kg q7dx3, day 43 from inoculum
  DD0113 tumour weight, Mean: 339.5 mg
EDO60: EDO-S101 60 mg/kg q7dx3, day 47 from inoculum
  DD0113 tumour weight, Mean: 330.2 mg
EDO60: EDO-S101 60 mg/kg q7dx3, day 50 from inoculum
  DD0113 tumour weight, Mean: 310.9 mg
EDO60: EDO-S101 60 mg/kg q7dx3, day 54 from inoculum
  DD0113 tumour weight, Mean: 321.1 mg
EDO60: EDO-S101 60 mg/kg q7dx3, day 58 from inoculum
  DD0113 tumour weight, Mean: 303.3 mg
EDO60: EDO-S101 60 mg/kg q7dx3, day 62 from inoculum
  DD0113 tumour weight, Mean: 298.3 mg
EDO60: EDO-S101 60 mg/kg q7dx3, day 65 from inoculum
  DD0113 tumour weight, Mean: 291.6 mg
EDO60: EDO-S101 60 mg/kg q7dx3, day 69 from inoculum
  DD0113 tumour weight, Mean: 334.6 mg
EDO60: EDO-S101 60 mg/kg q7dx3, day 72 from inoculum
  DD0113 tumour weight, Mean: 423.7 mg
EDO60: EDO-S101 60 mg/kg q7dx3, day 75 from inoculum
  DD0113 tumour weight, Mean: 432.9 mg
EDO60: EDO-S101 60 mg/kg q7dx3, day 79 from inoculum
  DD0113 tumour weight, Mean: 475.7 mg
EDO60: EDO-S101 60 mg/kg q7dx3, day 83 from inoculum
  DD0113 tumour weight, Mean: 376.9 mg
